Laboratory results published in patent publication US20240408226A1, “ANTIBODY DRUG CONJUGATE INTERMEDIATE CONTAINING SN38 AND ITS PREPARATION METHOD” (priority 2021, published 2024).

How the values were obtained:
[1] = Stability in PB (0.2 M) buffer at 37° C., quantified by LC-MS; assay type: physicochemical; details: for Remaining fraction T/T0: 37° C.
Method: The system was placed in a constant temperature system of 37° C. […] The system was placed in a constant temperature system of 37° C.; • 4) 40 μL of sample was respectively taken at 0 h, 2 h, 4 h, 6 h, 24 h, and 48 h, added with 120 μL of acetonitrile, and centrifuged. The supernatant was taken for quantitative determination by LC-MS. • 5) Results processing.
The concentration at T=0 h in LC-MS was used as the reference, and the data were calculated by T/T0*100%. The results are shown in Table 3 and Table 4, respectively.

small cell lung cancer = small cell lung cancer in which multiple treatments had failed; cited from earlier work
[2] = test system: non-small cell lung cancer; details: non-small cell lung cancer after failed chemotherapy, targeting therapy and PD-1 treatment; cited from earlier work
[3] = test system: triple-negative breast cancer; details: clinical phase II; cited from earlier work

Compound | decomposed ([1]; alkaline conditions, at 24 h) | decomposed ([1]; neutral conditions, at 6 h) | decomposed ([1]; neutral conditions, at 24 h) | Remaining fraction T/T0 ([1]; pH = 6, 0 h, 60 μg/mL) | Remaining fraction T/T0 ([1]; pH = 6, 2 h, 60 μg/mL) | Remaining fraction T/T0 ([1]; pH = 6, 4 h, 60 μg/mL) | Remaining fraction T/T0 ([1]; pH = 6, 6 h, 60 μg/mL) | Remaining fraction T/T0 ([1]; pH = 6, 24 h, 60 μg/mL) | Remaining fraction T/T0 ([1]; pH = 6, 48 h, 60 μg/mL) | Remaining fraction T/T0 ([1]; pH = 7, 0 h) | Remaining fraction T/T0 ([1]; pH = 7, 2 h) | Remaining fraction T/T0 ([1]; pH = 7, 4 h) | Remaining fraction T/T0 ([1]; pH = 7, 6 h) | Remaining fraction T/T0 ([1]; pH = 7, 24 h) | Remaining fraction T/T0 ([1]; pH = 7, 48 h) | Remaining fraction T/T0 ([1]; pH = 8, 0 h) | Remaining fraction T/T0 ([1]; pH = 8, 2 h) | Remaining fraction T/T0 ([1]; pH = 8, 4 h) | Remaining fraction T/T0 ([1]; pH = 8, 6 h) | Remaining fraction T/T0 ([1]; pH = 8, 24 h) | further results
CCc1c2c(nc3ccc(OC(=O)N(CCOCCOC(=O)N(C)CCN(C)C)CCN(C)C(=O)OCc4ccc(NC(=O)[C@H](CCCNC(N)=O)NC(=O)[C@@H](NC(=O)CCCCCN5C(=O)C=CC5=O)C(C)C)cc4)cc13)-c1cc3c(c(=O)n1C2)COC(=O)[C@]3(O)CC [Compound of formula (1), maleimidohexanoic acid-L-valyl-L-citrulline-p-aminobenzyl-(N-methylethyldiethoxy-N,N,N-trimethylethylenediami ne)-camptothecin] | 97% | 18% | 75% | 1 | 0.9886 | 0.9761 | 0.9208 | 0.8682 | 0.7886 | 1 | 0.8789 | 0.8018 | 0.8219 | 0.2567 | 0.1222 | 1 | 0.5641 | 0.2841 | 0.1234 | 0.009607 | Remaining fraction T/T0 ([1]; pH = 8, 48 h): 0.01256; decomposed ([1]; pH of 6, after 48 h): 21.2%; decomposed ([1]; pH of 7, after 48 h): 87.8%; decomposed ([1]; pH of 8, after 48 h): 98.7%; Stability compared with CL2A-SN38 ([1]; weak acidic conditions): more stable than CL2A-SN38; Stability compared with CL2A-SN38 ([1]; weak acidic or neutral conditions): higher stability
CCc1c2c(nc3ccc(O)cc13)-c1cc3c(c(=O)n1C2)COC(=O)[C@@]3(CC)OC(=O)OCc1ccc(NC(=O)[C@@H](CCCCN)NC(=O)COCC(=O)NCCOCCOCCOCCOCCOCCOCCOCCOCCn2cc(CNC(=O)C3CCC(CN4C(=O)C=CC4=O)CC3)nn2)cc1 (stereo partly drawn) [CL2A-SN38] | 98% | 43% | 98% | 1 | 0.7479 | 0.6471 | 0.413 | 0.03593 | 0.02024 | 1 | 0.7038 | 0.5851 | 0.5715 | 0.02261 | 0.01906 | 1 | 0.6287 | 0.4347 | 0.3844 | 0.02532 | Remaining fraction T/T0 ([1]; pH = 8, 48 h): 0.01928; decomposed ([1]; pH of 6, after 48 h): 98.0%; decomposed ([1]; pH of 7, after 48 h): 98.1%; decomposed ([1]; pH of 8, after 48 h): 98.1%
Sacituzumab govitecan |  |  |  |  |  |  |  |  |  |  |  |  |  |  |  |  |  |  |  |  | tumor shrinkage, share of patients (small cell lung cancer): 60%; control rate [2]: up to 43%; effective rate [3]: 30%; tumor shrinkage, share of patients [3]: 69.5%
